We go through three compounds from patent publication US20070089183A1, “Size and/or growth engineering by modulation of the interaction between calmodulin, and brassinosteroid biosynthetic enzymes and orthologs therof” (Washington State University, priority 2005, published 2007).

Where no end group is shown, it is not given here.

In experiment [1] the test system is cM1, cM2, cM3 and the dwf1 mutant. Nature of the experiment: exogenous application of brassinolide to dwarf plants. Particulars: data not shown. The class given is in vivo, Arabidopsis. From the text: To ensure a reliable comparison of the complementary effects of normal DWF1 and the three mutants, T2 plants with similar expression levels were compared (FIG. 3b-d). […] Seeds were produced in most of the slightly shorter siliques of cM1 plants (FIG. 3b, c). […] The dwarf phenotypes of cM1, cM2, cM3 and the dwf1 mutant were rescued by exogenous application of brassinolide (data not shown).

Another experiment has as its system DWF4 null mutant. Nature of the experiment: complementation of DWF4 null mutant or overexpression, plant growth. The class given is in vivo, Arabidopsis. An excerpt: For example, partial dwarf Arabidopsis plants were generated through manipulation of the DWF4 CaMBD regulatory domain.

Regarding `CC(C)[C@H](C)[C@@H](O)[C@H](O)[C@@H](C)[C@H]1CC[C@H]2[C@@H]3COC(=O)[C@H]4C[C@H](O)[C@H](O)C[C@]4(C)[C@H]3CC[C@]12C` [brassinolide], the “rescue of dwarf phenotypes” value in experiment [1] is “rescued”.
For the compound “DWF4 mutant having a L to D change at amino acid 21: DWF4 with L to D change at aa 21 within the N-terminal CaMBD (PSLLSDLLFLILLKRRNRKTRFNLP; not fully specified; listed as Arabidopsis thaliana)”, the plant growth phenotype entry in the experiment on DWF4 null mutant (complementing a DWF4 null mutant) is “semi-dwarf”.
Turning to “mutant having a L to V change at amino acid 28: DWF4 with L to V change at aa 28 within the N-terminal CaMBD (PSLLSLLLFLILVKRRNRKTRFNLP; listed as Arabidopsis thaliana)”, the plant growth phenotype entry with DWF4 null mutant (overexpression) is given as “enhanced growth”.
